These results are taken from ChEMBL document CHEMBL1136178, “Carbonic anhydrase inhibitors: topically acting antiglaucoma sulfonamides incorporating esters and amides of 3- and 4-carboxybenzolamide” (Bioorg Med Chem Lett, 2003).

Molecules are shown by their SMILES. pKi: −log10 of the molar value.

The species named for assay [1] is Oryctolagus cuniculus.
Description: Fall of intraocular pressure (IOP) after treatment with 50 ug into normotensive rabbit at time interval 60 min at a pH of 7
The target in a further assay is Carbonic anhydrase 2 (Homo sapiens, UniProt P00918).
The target of another assay is Carbonic anhydrase 1 (Homo sapiens, UniProt P00915).
For assay [2], the species on record is Oryctolagus cuniculus. The source holds these as a separate data set.
Description: Fall of intraocular pressure (IOP) after treatment with 50 ug into normotensive rabbit at time interval 90 min at a pH of 7
For assay [3], the species on record is Oryctolagus cuniculus. The source holds these as a separate data set.
Description: Fall of intraocular pressure (IOP) after treatment with 50 ug into normotensive rabbit at time interval 240 min at a pH of 7
The species entered for assay [4] is Oryctolagus cuniculus. This is another data set of the same source.
Description: Fall of intraocular pressure (IOP) after treatment with 50 ug into normotensive rabbit at time interval 30 min at a pH of 7
Another assay concerns the target T1, Carbonic anhydrase 4 (Bos taurus, UniProt Q95323).
T1 sequence (Q95323 whole entry): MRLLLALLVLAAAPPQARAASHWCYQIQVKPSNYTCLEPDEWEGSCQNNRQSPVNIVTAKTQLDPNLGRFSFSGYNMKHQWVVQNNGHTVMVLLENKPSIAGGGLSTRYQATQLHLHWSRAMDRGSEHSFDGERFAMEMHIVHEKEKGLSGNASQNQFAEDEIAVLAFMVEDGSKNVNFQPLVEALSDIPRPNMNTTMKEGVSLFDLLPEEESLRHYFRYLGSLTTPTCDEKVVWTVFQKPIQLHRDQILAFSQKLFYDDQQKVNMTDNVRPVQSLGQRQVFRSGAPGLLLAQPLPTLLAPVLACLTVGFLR

Carbonic anhydrase 1, sequence (P00915 whole entry): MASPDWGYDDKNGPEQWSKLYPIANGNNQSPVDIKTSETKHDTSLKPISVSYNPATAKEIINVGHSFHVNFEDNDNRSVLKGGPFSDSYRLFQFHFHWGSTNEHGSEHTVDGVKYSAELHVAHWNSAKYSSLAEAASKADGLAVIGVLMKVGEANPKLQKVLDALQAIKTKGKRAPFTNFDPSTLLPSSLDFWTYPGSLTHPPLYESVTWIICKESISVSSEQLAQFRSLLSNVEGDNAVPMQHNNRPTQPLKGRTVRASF
Description for Carbonic anhydrase 1: Inhibitory activity against human carbonic anhydrase I (hCA I)
Description for Carbonic anhydrase 2: Inhibitory activity against human carbonic anhydrase II
Description for Carbonic anhydrase 4: Inhibitory activity against Carbonic anhydrase IV isolated from bovine lung

`CN(C)CCOC(=O)c1cccc(S(=O)(=O)Nc2nnc(S(N)(=O)=O)s2)c1`: the “Delta IOP” value amounted to 4.9 mmHg in the assay listed under Oryctolagus cuniculus [1], 7.1 mmHg in the assay listed under Oryctolagus cuniculus [2], 5.7 mmHg in the assay filed under Oryctolagus cuniculus [3] and 4.5 mmHg in the assay filed under Oryctolagus cuniculus [4]. Also, the pKi is 8.68 at Carbonic anhydrase 2, 7.82 on Carbonic anhydrase 1 and 8.15 on Carbonic anhydrase 4.
Turning to `CCN(CC)CCNC(=O)c1cccc(S(=O)(=O)Nc2nnc(S(N)(=O)=O)s2)c1`, the “Delta IOP” value turned out to be 6.9 mmHg in the assay listed under Oryctolagus cuniculus [1], 9.1 mmHg in the assay filed under Oryctolagus cuniculus [2], 8 mmHg in the assay listed under Oryctolagus cuniculus [3] and 6.5 mmHg in the assay filed under Oryctolagus cuniculus [4]. Besides, the results for the pKi at Carbonic anhydrase 2, on Carbonic anhydrase 1 and on Carbonic anhydrase 4 were 8.77, 7.85 and 8.15, respectively.
Turning to `CC(CN(C)C)OC(=O)c1cccc(S(=O)(=O)Nc2nnc(S(N)(=O)=O)s2)c1` (stereo unspecified), the “Delta IOP” value is reported as 6.7 mmHg in the assay listed under Oryctolagus cuniculus [1], 8.5 mmHg in the assay filed under Oryctolagus cuniculus [2], 7.9 mmHg in the assay filed under Oryctolagus cuniculus [3] and 2.5 mmHg in the assay listed under Oryctolagus cuniculus [4]. Further, the pKi is 8.70 on Carbonic anhydrase 2, 7.77 on Carbonic anhydrase 1 and 8.10 at Carbonic anhydrase 4.
As to `CCN(CC)CCNC(=O)c1ccc(S(=O)(=O)Nc2nnc(S(N)(=O)=O)s2)cc1`, the pKi at Carbonic anhydrase 1 was […]; at Carbonic anhydrase 4 it was […].
Take `CCN(CC)CCNC(=O)c1cccc(S(=O)(=O)/N=c2/sc(S(N)(=O)=O)nn2C)c1`: the pKi on Carbonic anhydrase 2 was 8.72; at Carbonic anhydrase 1 it was 7.80; at Carbonic anhydrase 4, 8.15.
Taken in the same sequence, the figures for `CN(C)CCOCCOC(=O)c1cccc(S(=O)(=O)/N=c2/sc(S(N)(=O)=O)nn2C)c1` were 8.70, 7.82 and 8.10.
As for `CN(C)CCOC(=O)c1cccc(S(=O)(=O)/N=c2/sc(S(N)(=O)=O)nn2C)c1`, the results for the pKi at Carbonic anhydrase 2, at Carbonic anhydrase 1 and at Carbonic anhydrase 4 were 8.54, 7.80 and 8.00, respectively.
For `Cn1nc(S(N)(=O)=O)s/c1=N/S(=O)(=O)c1ccc(C(=O)OCCO)cc1`, in that order: 8.40, 7.70 and 7.85.
For `COCCOC(=O)c1cccc(S(=O)(=O)Nc2nnc(S(N)(=O)=O)s2)c1`, the “Delta IOP” value in the assay filed under Oryctolagus cuniculus [1] worked out at 2.5 mmHg; in the assay listed under Oryctolagus cuniculus [2], 2 mmHg; in the assay listed under Oryctolagus cuniculus [3], 0 mmHg; in the assay listed under Oryctolagus cuniculus [4] it was 6 mmHg. In addition, the values for the pKi at Carbonic anhydrase 2, at Carbonic anhydrase 1 and at Carbonic anhydrase 4 were 8.54, 7.82 and 8.10, respectively.
With `NS(=O)(=O)c1nnc(NS(=O)(=O)c2cccc(C(=O)OCCO)c2)s1`, the “Delta IOP” value in the assay filed under Oryctolagus cuniculus [1] came out at 4.8 mmHg; in the assay filed under Oryctolagus cuniculus [2], 2.8 mmHg; in the assay listed under Oryctolagus cuniculus [3] it was 0.5 mmHg; in the assay listed under Oryctolagus cuniculus [4] it was 10.5 mmHg. The pKi on Carbonic anhydrase 2 is 8.51; at Carbonic anhydrase 1, 7.80; on Carbonic anhydrase 4, 8.10.
`CN(C)CCOC(=O)c1ccc(S(=O)(=O)/N=c2/sc(S(N)(=O)=O)nn2C)cc1`: the figures for the pKi on Carbonic anhydrase 2, on Carbonic anhydrase 1 and at Carbonic anhydrase 4 were 8.62, 7.89 and 7.85, respectively.
For `NS(=O)(=O)c1nnc(NS(=O)(=O)c2ccc(C(=O)O)cc2)s1`, the pKi at Carbonic anhydrase 2 was 8.34; at Carbonic anhydrase 1 it was 7.35; at Carbonic anhydrase 4, 7.92.
Take `CN(C)CCOCCOC(=O)c1ccc(S(=O)(=O)Nc2nnc(S(N)(=O)=O)s2)cc1`: the “Delta IOP” value in the assay listed under Oryctolagus cuniculus [1] is recorded as 3.9 mmHg; in the assay filed under Oryctolagus cuniculus [2], 5.7 mmHg; in the assay listed under Oryctolagus cuniculus [3], 6.3 mmHg; in the assay listed under Oryctolagus cuniculus [4], 2.7 mmHg. For the same molecule, the negative-log Ki (pKi) at Carbonic anhydrase 2 was 8.89; at Carbonic anhydrase 1 it was 7.92; at Carbonic anhydrase 4, 8.15.
On to `Cn1nc(S(N)(=O)=O)s/c1=N/S(=O)(=O)c1cccc(C(=O)OCCO)c1`, for which the pKi was 8.28 on Carbonic anhydrase 2, 7.64 at Carbonic anhydrase 1 and 8.00 on Carbonic anhydrase 4.
Taken in the same sequence, the figures for `CC(CN(C)C)OC(=O)c1ccc(S(=O)(=O)/N=c2/sc(S(N)(=O)=O)nn2C)cc1` (stereo unspecified) were 8.74, 7.82 and 7.89.
For `COCCOC(=O)c1cccc(S(=O)(=O)/N=c2/sc(S(N)(=O)=O)nn2C)c1`, in that order: 8.48, 7.77 and 8.05.
Taken in the same sequence, the figures for `CN(C)CCOCCOC(=O)c1ccc(S(=O)(=O)/N=c2/sc(S(N)(=O)=O)nn2C)cc1` were 8.77, 7.89 and 8.05.
As for `Cn1nc(S(N)(=O)=O)s/c1=N/S(=O)(=O)c1cccc(C(=O)O)c1`, the pKi was 8.23 at Carbonic anhydrase 2, 7.14 on Carbonic anhydrase 1 and 7.82 at Carbonic anhydrase 4.
As for `CC(CN(C)C)OC(=O)c1cccc(S(=O)(=O)/N=c2/sc(S(N)(=O)=O)nn2C)c1` (stereo unspecified), the pKi at Carbonic anhydrase 2 is 8.66; on Carbonic anhydrase 1, 7.74; on Carbonic anhydrase 4, 7.92.
Turning to `COCCOC(=O)c1ccc(S(=O)(=O)/N=c2/sc(S(N)(=O)=O)nn2C)cc1`, the pKi at Carbonic anhydrase 2 is 8.51; at Carbonic anhydrase 1, 7.80; on Carbonic anhydrase 4, 7.92.
For `NS(=O)(=O)c1nnc(NS(=O)(=O)c2cccc(C(=O)O)c2)s1`, in that order: 8.29, 7.17 and 7.89.
Consider `CC(CN(C)C)OC(=O)c1ccc(S(=O)(=O)Nc2nnc(S(N)(=O)=O)s2)cc1` (stereo unspecified), for which the “Delta IOP” value amounted to 5.9 mmHg in the assay filed under Oryctolagus cuniculus [1], 8.2 mmHg in the assay filed under Oryctolagus cuniculus [2], 8 mmHg in the assay filed under Oryctolagus cuniculus [3] and 4.8 mmHg in the assay listed under Oryctolagus cuniculus [4]. The results for the pKi at Carbonic anhydrase 2, on Carbonic anhydrase 1 and at Carbonic anhydrase 4 were 8.85, 7.89 and 8.00, respectively.
For `CN(C)CCOC(=O)c1ccc(S(=O)(=O)Nc2nnc(S(N)(=O)=O)s2)cc1`, the “Delta IOP” value stood at 5.5 mmHg in the assay filed under Oryctolagus cuniculus [1], 8 mmHg in the assay filed under Oryctolagus cuniculus [2], 7.6 mmHg in the assay filed under Oryctolagus cuniculus [3] and 4.5 mmHg in the assay filed under Oryctolagus cuniculus [4]. Also, the pKi at Carbonic anhydrase 2 was 8.82; at Carbonic anhydrase 1, 7.96; on Carbonic anhydrase 4 it was 8.00.
Turning to `Cn1nc(S(N)(=O)=O)s/c1=N/S(=O)(=O)c1ccc(C(=O)O)cc1`, the pKi was 8.27 at Carbonic anhydrase 2, 7.30 on Carbonic anhydrase 1 and 7.85 on Carbonic anhydrase 4.
For the molecule `NS(=O)(=O)c1nnc(NS(=O)(=O)c2ccc(C(=O)OCCO)cc2)s1`, the pKi at Carbonic anhydrase 2 was 8.54; on Carbonic anhydrase 1, 7.85; at Carbonic anhydrase 4 it was 7.96.
For the molecule `CN(C)CCOCCOC(=O)c1cccc(S(=O)(=O)Nc2nnc(S(N)(=O)=O)s2)c1`, the “Delta IOP” value in the assay filed under Oryctolagus cuniculus [1] came out at 4.5 mmHg; in the assay listed under Oryctolagus cuniculus [2] it was 4.1 mmHg; in the assay listed under Oryctolagus cuniculus [3], 3.3 mmHg; in the assay listed under Oryctolagus cuniculus [4], 4.9 mmHg. Further, the values for the negative logarithm of the Ki (pKi) at Carbonic anhydrase 2, at Carbonic anhydrase 1 and at Carbonic anhydrase 4 were 8.80, 7.89 and 8.22, respectively.
As to `CCN(CC)CCNC(=O)c1ccc(S(=O)(=O)/N=c2/sc(S(N)(=O)=O)nn2C)cc1`, the figures for the pKi at Carbonic anhydrase 2, at Carbonic anhydrase 1 and on Carbonic anhydrase 4 were 8.77, 7.92 and 8.10, respectively.
For `COCCOC(=O)c1ccc(S(=O)(=O)Nc2nnc(S(N)(=O)=O)s2)cc1`, in that order: 8.55, 7.92 and 8.00.
Turning to `NS(=O)(=O)c1nnc(NS(=O)(=O)c2ccccc2)s1` [BENZOLAMIDE], the pKi at Carbonic anhydrase 4 is 7.92.
Same read-out and setting: as for `CC(=O)/N=c1/sc(S(N)(=O)=O)nn1C` [METHAZOLAMIDE], the figure is 6.84.
